Test: In vitro acyl-CoA oxidase activity assay of E. coli lysates
Type: biochemical, Candida strain ATCC20336
Conditions: wild type enzyme, FIG. 21
Description: Acyl-CoA oxidases from a range of organisms were cloned into the E. coli expression vector pET26b (EMD4Biosciences, Darmstadt, Germany), which contains a kanamycin resistance cassette. The source of the acyl-CoA oxidase, the name of the gene, the primers and restriction enzymes used to clone the acyl CoA oxidase coding sequence into pET26b and the coding sequence are described herein. The acyl CoA oxidase coding sequences were amplified by PCR using the appropriate primers designed from cDNA libraries, published cDNA or genomic DNA sequences corresponding to the organism. […]
To express an enzyme, a colony from each transformation of Rosetta cells was used to start a 5 ml overnight culture of LB containing the antibiotics kanamycin (to select for pET26b) and chloramphenicol (to select for a second plasmid found in Rosetta II cells that mediates improved translation of eukaryotic proteins expressed in E. coli) grown at 37° C. The next morning, the overnight culture was used to seed 30 ml of LB containing kanamycin and chloramphenicol to an OD600 reading of 0.1. […]
To test the activity of the acyl CoA oxidase, cells from the overnight induction were pelleted at 1046×g at 4° C. in 50 ml conical tubes. […] The spectrophotometer was set to read for 5 minutes at 500 nm, 30° C. […]

Question: For “Pox5: wild type acyl CoA oxidase Pox5 from Candida strain ATCC20336”, which “activity on C6 and C8 substrates” value is on record?
Answer: low activity

Question: What about the “substrate chain length of optimal activity” value of the same substance?
Answer: 12 to 18 carbons

— US9850493B2, “Biological methods for preparing a fatty dicarboxylic acid” (VERDEZYNE, INC., priority 2012, dated 2017)
